Like-named read-outs stand apart in the source and are kept apart here.
Target: GCN2 (Homo sapiens, UniProt Q9P2K8)
Test: GCN2 enzymatic endpoint assay: phosphorylation of GFP-eIF2α measured by TR-FRET (Lanthascreen)
Assay type: biochemical
Method in brief: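 Endpoint GCN2 reaction with low ATP (2 μM) and 80 nM GFP-eIF2α, room temperature, 90 minutes. Detection mix with EDTA and Tb-labelled antibody; 520 nm/495 nm emission ratio reported.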

[1] = tested as described in Example 77, compound and/or hydrochloride, dihydrochloride or trifluoroacetic acid salt, read-out: IC 50 Activity

Sequence of GCN2 (Q9P2K8 whole entry): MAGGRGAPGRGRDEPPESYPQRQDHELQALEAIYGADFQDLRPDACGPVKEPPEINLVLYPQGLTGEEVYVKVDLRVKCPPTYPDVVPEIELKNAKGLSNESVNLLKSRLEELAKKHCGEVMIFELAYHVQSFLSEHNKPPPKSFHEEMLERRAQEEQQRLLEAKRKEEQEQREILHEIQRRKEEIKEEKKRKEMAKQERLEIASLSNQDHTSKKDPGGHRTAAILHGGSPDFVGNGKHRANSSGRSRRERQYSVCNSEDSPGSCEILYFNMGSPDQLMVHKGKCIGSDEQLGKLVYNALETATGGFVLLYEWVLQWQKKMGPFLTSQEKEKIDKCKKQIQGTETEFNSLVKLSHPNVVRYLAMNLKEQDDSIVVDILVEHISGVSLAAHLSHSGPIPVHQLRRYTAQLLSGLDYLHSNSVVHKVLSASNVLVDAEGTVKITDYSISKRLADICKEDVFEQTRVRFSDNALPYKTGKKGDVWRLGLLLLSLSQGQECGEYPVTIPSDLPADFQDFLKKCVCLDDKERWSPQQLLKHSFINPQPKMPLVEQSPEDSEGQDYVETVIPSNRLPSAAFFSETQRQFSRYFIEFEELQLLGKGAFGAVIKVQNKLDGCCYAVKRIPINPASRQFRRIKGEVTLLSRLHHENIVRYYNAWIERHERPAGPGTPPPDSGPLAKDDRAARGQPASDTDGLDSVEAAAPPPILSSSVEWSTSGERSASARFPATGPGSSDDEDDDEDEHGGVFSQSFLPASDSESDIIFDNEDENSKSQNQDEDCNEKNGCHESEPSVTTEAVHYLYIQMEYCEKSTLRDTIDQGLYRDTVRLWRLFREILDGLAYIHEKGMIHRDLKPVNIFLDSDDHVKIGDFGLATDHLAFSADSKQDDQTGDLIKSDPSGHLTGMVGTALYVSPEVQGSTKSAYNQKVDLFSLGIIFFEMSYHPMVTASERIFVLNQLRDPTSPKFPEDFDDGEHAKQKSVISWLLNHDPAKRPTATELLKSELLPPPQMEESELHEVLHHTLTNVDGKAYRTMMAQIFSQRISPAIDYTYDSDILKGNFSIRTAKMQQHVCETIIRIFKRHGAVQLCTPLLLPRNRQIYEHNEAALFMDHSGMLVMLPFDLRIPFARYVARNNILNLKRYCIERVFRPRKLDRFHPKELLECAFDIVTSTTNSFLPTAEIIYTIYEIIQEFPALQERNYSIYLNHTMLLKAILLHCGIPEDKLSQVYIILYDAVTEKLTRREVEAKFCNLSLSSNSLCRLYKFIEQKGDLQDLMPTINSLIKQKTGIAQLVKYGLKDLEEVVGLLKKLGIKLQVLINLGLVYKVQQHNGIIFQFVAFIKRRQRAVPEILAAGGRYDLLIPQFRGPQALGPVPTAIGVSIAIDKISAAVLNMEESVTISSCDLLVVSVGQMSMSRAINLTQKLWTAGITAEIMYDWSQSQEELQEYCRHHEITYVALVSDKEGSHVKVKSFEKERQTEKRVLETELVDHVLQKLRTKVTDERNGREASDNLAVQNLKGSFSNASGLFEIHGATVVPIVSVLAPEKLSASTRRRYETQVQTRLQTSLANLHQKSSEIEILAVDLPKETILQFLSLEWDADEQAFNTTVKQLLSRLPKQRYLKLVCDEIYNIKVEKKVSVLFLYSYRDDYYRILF

| Structure (SMILES) | IC50 [1] [nM] | IC50 (GCN2 biochemical IC50, 4 nM GCN2, 2 μM ATP, 80 nM GFP-eIF2α, 90 min RT, read-out: GCN2 activity) [nM] |
| --- | --- | --- |
| Cc1nnc(-c2ccc(-n3nc(Br)c4cnc(N[C@@H]5CC[C@@](C)(C(=O)NCC(F)F)C5)nc43)cc2)s1 [(1R,3R)-3-[[3-bromo-1-[4-(5-methyl-1,3,4-thiadiazol-2-yl)phenyl]pyrazolo [3,4-d]pyrimidin-6-yl]amino]-N-(2,2-difluoroethyl)-1-methyl-cyclopentane-carboxamide] | 25 to 200 | – |
| CC1N(C)C(=O)CN1C(=O)[C@@H]1CC[C@@H](Nc2ncc3c(Br)nn(-c4cc(F)c5ncccc5c4)c3n2)C1 (mixture of isomers) | < 25 | – |
| CS(=O)(=O)CCNC(=O)C12CCC(Nc3ncc4c(Br)nn(-c5ccc6ncccc6c5)c4n3)(C1)C2 [4-((3-bromo-1-(quinolin-6-yl)-1H-pyrazolo [3,4-d]pyrimidin-6-yl)amino)-N-(2-(methyl-sulfonyl)ethyl)bicyclo[2.1.1]hexane-1-carboxamide] | 200 to 500 | – |
| Cc1nnc(-c2ccc(-n3nc(Br)c4cnc(N[C@@H]5CC[C@@H](P(C)(C)=O)C5)nc43)cc2CCS(C)(=O)=O)s1 [3-bromo-N-[(1R,3R)-3-dimethylphosphoryl-cyclopentyl]-1-[3-(2-methylsulfonylethyl)-4-(5-methyl-1,3,4-thiadiazol-2-yl)phenyl] pyrazolo[3,4-d]pyrimidin-6-amine] | 25 to 200 | – |
| O=C1CN(C(=O)[C@@H]2CC[C@@H](Nc3ncc4c(Br)nn(-c5cc(F)c6ncccc6c5)c4n3)C2)CN1CC1CC1 [1-[(1R,3R)-3-[[3-bromo-1-(8-fluoro-6-quinolyl)pyrazolo[3,4-d]pyrimidin-6-yl]amino]cyclopentanecarbonyl]-3-(cyclopropylmethyl)imidazolidin-4-one] | 25 to 200 | – |
| CNC(=O)[C@]1(C)CC[C@@H](Nc2ncc3c(Br)nn(-c4ccc5c(c4)CN(C(=O)C4CN(C(=O)C(F)(F)F)C4)CC5)c3n2)C1 [(1R,3R)-3-[[3-bromo-1-[2-[1-(2,2,2-trifluoroacetyl)azetidine-3-carbonyl]-3,4-dihydro-1H-isoquinolin-7-yl]pyrazolo[3,4-d]pyrimidin-6-yl]amino]-N,1-dimethyl-cyclopentanecarboxamide] | 25 to 200 | – |
| CNC(=O)[C@]1(C)CC[C@@H](Nc2ncc3c(Br)nn(-c4cc(Cl)c(F)c(CS(C)(=O)=O)c4)c3n2)C1 | 25 to 200 | – |
| CN1CCN(C(=O)[C@@H]2CC[C@@H](Nc3ncc4c(Br)nn(-c5cc(C(F)F)c6ncccc6c5)c4n3)C2)CC1=O [4-((1R,3R)-3-((3-bromo-1-(8-(difluoromethyl)quinolin-6-yl)-1H-pyrazolo[3,4-d]pyrimidin-6-yl)amino)cyclopentane-1-carbonyl)-1-methyl-piperazin-2-one] | 25 to 200 | – |
| CNC(=O)[C@]1(C)CC[C@@H](Nc2ncc3c(Br)nn(-c4ccc5nccc(OC)c5c4)c3n2)C1 [(1R,3R)-3-[[3-bromo-1-(4-methoxy-6-quinolyl)pyrazolo[3,4-d]pyrimidin-6-yl]amino]-N,1-dimethyl-cyclopentanecarboxamide] | < 25 | – |
| CN(C)C(=O)[C@]1(C)CC[C@@H](Nc2ncc3c(Br)nn(-c4cc(CCN)c5ncccc5c4)c3n2)C1 [Example 30, (1R,3R)-3-((1-(8-(2-aminoethyl)quinolin-6-yl)-3-bromo-1H-pyrazolo[3,4-d]pyrimidin-6-yl)amino)-N,N,1-trimethylcyclopentane-1-carboxamide; 2,2,2-trifluoroacetic acid] | – | < 25 |
| CNC(=O)[C@]1(C)CC[C@@H](Nc2ncc3c(Br)nn(-c4ccc(-c5nnc(C)o5)c(CCN)c4)c3n2)C1 [(1R,3R)-3-[[1-[3-(2-aminoethyl)-4-(5-methyl-1,3,4-oxadiazol-2-yl)phenyl]-3-bromopyrazolo[3,4-d]pyrimidin-6-yl]amino]-N,1-dimethyl-cyclopentane-carboxamide] | 25 to 200 | – |
| CNC(=O)[C@]1(C)CC[C@@H](Nc2ncc3c(Br)nn(-c4cc(Cl)cc(NC(=O)C5CNC5)c4)c3n2)C1 [N-[3-[3-bromo-6-[[(1R,3R)-3-methyl-3-(methylcarbamoyl)cyclopentyl]amino]pyrazolo[3,4-d]pyrimidin-1-yl]-5-chloro-phenyl]azetidine-3-carboxamide] | 25 to 200 | – |
| CNC(=O)[C@]1(C)CC[C@@H](Nc2ncc3c(Br)nn(-c4ccc5nc(NC(C)=O)ncc5c4)c3n2)C1 [(1R,3R)-3-[[1-(2-acetamidoquinazolin-6-yl)-3-bromo-pyrazolo[3,4-d]pyrimidin-6-yl]amino]-N,1-dimethyl-cyclopentane-carboxamide; 2,2,2-trifluoroacetic acid] | 25 to 200 | – |
| CN(CCNC(=O)[C@@H]1CC[C@@H](Nc2ncc3c(Br)nn(-c4cc(F)c5ncccc5c4)c3n2)C1)CC(=O)O [N-(2-((1R,3R)-3-((3-bromo-1-(8-fluoroquinolin-6-yl)-1H-pyrazolo[3,4-d]pyrimidin-6-yl)amino)cyclopentane-1-carboxamido)ethyl)-N-methylglycine] | 25 to 200 | – |
| CNC(=O)[C@]1(C)CC[C@@H](Nc2ncc3c(Br)nn(-c4ccc(-c5nnc(C(C)(C)N)o5)c(C#N)c4)c3n2)C1 [(1R,3R)-3-[[1-[4-[5-(1-amino-1-methyl-ethyl)-1,3,4-oxadiazol-2-yl]-3-cyano-phenyl]-3-bromo-pyrazolo[3,4-d]pyrimidin-6-yl]amino]-N,1-dimethyl-cyclopentanecarboxamide] | < 25 | – |
| CNC(=O)C1(C)CC[C@@H](Nc2ncc3c(Br)nn(-c4cccc(C(C)(C)O)c4)c3n2)C1 (stereo partly drawn) [(3R)-3-[[3-bromo-1-[3-(1-hydroxy-1-methyl-ethyl)phenyl]pyrazolo[3,4-d]pyrimidin-6-yl]amino]-N,1-dimethyl-cyclopentane-carboxamide] | 25 to 200 | – |
| O=C(NC[C@@H]1COCCN1)[C@@H]1CC[C@@H](Nc2ncc3c(Br)nn(-c4ccc5ncccc5c4)c3n2)C1 [(1R,3R)-3-((3-bromo-1-(quinolin-6-yl)-1H-pyrazolo[3,4-d]pyrimidin-6-yl)amino)-N-(((R)-morpholin-3-yl)methyl)cyclopentane-1-carboxamide] | 200 to 500 | – |
| Cc1ccc2cc(-n3nc(Br)c4cnc(N[C@@H]5CC[C@@H](P(C)(C)=O)C5)nc43)cc(CCO)c2n1 [2-[6-[3-bromo-6-[[(1R,3R)-3-dimethyl-phosphorylcyclopentyl]amino]pyrazolo [3,4-d]pyrimidin-1-yl]-2-methyl-8-quinolyl]ethanol] | 25 to 200 | – |
| O=C(NCCc1cnc[nH]1)[C@@H]1CC[C@@H](Nc2ncc3c(Br)nn(-c4cc(F)c5ncccc5c4)c3n2)C1 [(1R,3R)-N-(2-(1H-imidazol-5-yl)ethyl)-3-((3-bromo-1-(8-fluoroquinolin-6-yl)-1H-pyrazolo [3,4-d]pyrimidin-6-yl)amino)cyclopentane-1-carboxamide] | 25 to 200 | – |
| O=C([C@@H]1CC[C@@H](Nc2ncc3c(Br)nn(-c4cc(F)c5ncccc5c4)c3n2)C1)n1ccc(C(F)(F)F)n1 [((1R,3R)-3-((3-bromo-1-(8-fluoroquinolin-6-yl)-1H-pyrazolo[3,4-d]pyrimidin-6-yl)amino)cyclopentyl)(3-(trifluoromethyl)-1H-pyrazol-1-yl)methanone] | 25 to 200 | – |
| N#Cc1cc(-n2nc(Br)c3cnc(N[C@@H]4CC[C@@H](C(=O)NC5CCC(C#N)C5)C4)nc32)cc2cccnc12 (stereo partly drawn) | 25 to 200 | – |
| CNC(=O)C1(C)CC[C@@H](Nc2ncc3c(Br)nn(-c4cc(CO)cc(C(C)(C)C)c4)c3n2)C1 (stereo partly drawn) | 25 to 200 | – |
| CC1(C(=O)O)CN(C(=O)[C@@H]2CC[C@@H](Nc3ncc4c(Br)nn(-c5cc(F)c6ncccc6c5)c4n3)C2)C1 [1-((1R,3R)-3-((3-bromo-1-(8-fluoroquinolin-6-yl)-1H-pyrazolo[3,4-d]pyrimidin-6-yl)amino)cyclopentane-1-carbonyl)-3-methylazetidine-3-carboxylic acid] | 25 to 200 | – |
| O=C([C@@H]1CC[C@@H](Nc2ncc3c(Br)nn(-c4ccc5ncccc5c4)c3n2)C1)N1CCC2(CNC2)C1 [((1R,3R)-3-((3-bromo-1-(quinolin-6-yl)-1H-pyrazolo[3,4-d]pyrimidin-6-yl)amino)cyclo-pentyl)(2,6-diazaspiro[3.4]octan-6-yl) methanone] | < 25 | – |
| CNC(=O)[C@]1(C)CC[C@@H](Nc2ncc3c(Br)nn(-c4ccc5nc(N6CCOCC6)ncc5c4)c3n2)C1 [(1R,3R)-3-[[3-bromo-1-(2-morpholino-quinazolin-6-yl)pyrazolo[3,4-d]pyrimidin-6-yl]amino]-N,1-dimethyl-cyclopentane-carboxamide; 2,2,2-trifluoroacetic acid] | 25 to 200 | – |
| CC(=O)N1CCC(Nc2ncc3c(Br)nn(-c4cc(F)c5ncccc5c4)c3n2)CC1 [1-[4-[[3-bromo-1-(8-fluoro-6-quinolyl)pyrazolo[3,4-d]pyrimidin-6-yl]amino]-1-piperidyl]ethanone] | 25 to 200 | – |
| CNC(=O)[C@]1(C)CC[C@@H](Nc2ncc3c(Br)nn(-c4ccc(-n5nccn5)cc4)c3n2)C1 [(1R,3R)-3-[[3-bromo-1-[4-(triazol-2-yl)phenyl]pyrazolo[3,4-d]pyrimidin-6-yl]amino]-N,1-dimethyl-cyclopentane-carboxamide] | 25 to 200 | – |
| C[C@@]1(C(=O)NCCO)CC[C@@H](Nc2ncc3c(Br)nn(-c4cc(F)c5ncccc5c4)c3n2)C1 [(1R,3R)-3-[[3-bromo-1-(8-fluoro-6-quinolyl)pyrazolo[3,4-d]pyrimidin-6-yl]amino]-N-(2-hydroxyethyl)-1-methyl-cyclopentane-carboxamide] | < 25 | – |
| CNC(=O)[C@]1(C)CC[C@@H](Nc2ncc3c(Br)nn(-c4ccc5c(c4)CN(S(=O)(=O)C4COC4)C5)c3n2)C1 [(1R,3R)-3-[[3-bromo-1-[2-(oxetan-3-ylsulfonyl)isoindolin-5-yl]pyrazolo[3,4-d]pyrimidin-6-yl]amino]-N,1-dimethyl-cyclopentanecarboxamide] | 25 to 200 | – |
| CNC(=O)[C@]1(C)CC[C@@H](Nc2ncc3c(Br)nn(-c4cc(Cl)cc(C(=O)N(C)C)c4)c3n2)C1 [3-[3-bromo-6-[[(1R,3R)-3-methyl-3-(methylcarbamoyl)cyclopentyl]amino]pyrazolo[3,4-d]pyrimidin-1-yl]-5-chloro-N,N-dimethyl-benzamide] | 25 to 200 | – |
